Laboratory results: the supplement of paper PMC13380429

Key:
Settings in all cases: 72 h
HepG2 [1] = assay: cell viability relative to DMSO; higher = less toxic
Vero E6 [2] = assay: as above
Caco-2 [3] = assay: as above
U2OS [4] = assay: as above
HepG2 [5] = assay: drug sensitivity score (DSS) for viability; higher = more toxic; extreme values may be limits of the assay
Vero E6 [6] = assay: as above
Caco-2 [7] = assay: as above
U2OS [8] = assay: as above
HepG2 [9] = assay: relative viability EC50 (midpoint between 100% and the lowest measured viability); higher = less toxic
Vero E6 [10] = assay: as above
Caco-2 [11] = assay: as above
U2OS [12] = assay: as above
Calu-3 [13] = assay: cell viability relative to DMSO; higher = less toxic
Calu-3 [14] = assay: drug sensitivity score (DSS) for viability; higher = more toxic; extreme values may be limits of the assay

| Structure (SMILES) | cell viability (HepG2 [1]; 1 nM) [%] | cell viability (HepG2 [1]; 10 nM) [%] | cell viability (HepG2 [1]; 100 nM) [%] | cell viability (HepG2 [1]; 1000 nM) [%] | cell viability (HepG2 [1]; 10000 nM) [%] | cell viability (Vero E6 [2]; 1 nM) [%] | cell viability (Vero E6 [2]; 10 nM) [%] | cell viability (Vero E6 [2]; 100 nM) [%] | cell viability (Vero E6 [2]; 1000 nM) [%] | cell viability (Vero E6 [2]; 10000 nM) [%] | cell viability (Caco-2 [3]; 1 nM) [%] | cell viability (Caco-2 [3]; 10 nM) [%] | cell viability (Caco-2 [3]; 100 nM) [%] | cell viability (Caco-2 [3]; 1000 nM) [%] | cell viability (Caco-2 [3]; 10000 nM) [%] | cell viability (U2OS [4]; 1 nM) [%] | cell viability (U2OS [4]; 10 nM) [%] | cell viability (U2OS [4]; 100 nM) [%] | cell viability (U2OS [4]; 1000 nM) [%] | cell viability (U2OS [4]; 10000 nM) [%] | drug sensitivity score (HepG2 [5]) | drug sensitivity score (Vero E6 [6]) | drug sensitivity score (Caco-2 [7]) | drug sensitivity score (U2OS [8]) | relative viability EC50 (HepG2 [9]) [µM] | relative viability EC50 (Vero E6 [10]) [µM] | relative viability EC50 (Caco-2 [11]) [µM] | relative viability EC50 (U2OS [12]) [µM] | cell viability (Calu-3 [13]; 1 nM) [%] | cell viability (Calu-3 [13]; 10 nM) [%] | cell viability (Calu-3 [13]; 100 nM) [%] | cell viability (Calu-3 [13]; 1000 nM) [%] | cell viability (Calu-3 [13]; 10000 nM) [%] | drug sensitivity score (Calu-3 [14]) |
| --- | --- | --- | --- | --- | --- | --- | --- | --- | --- | --- | --- | --- | --- | --- | --- | --- | --- | --- | --- | --- | --- | --- | --- | --- | --- | --- | --- | --- | --- | --- | --- | --- | --- | --- |
| CN(c1ccccc1CNc1nc(Nc2ccc3c(c2)CC(=O)N3)ncc1C(F)(F)F)S(C)(=O)=O | 92.8 | 89.9 | 92.9 | 51.5 | 7.2 | 97 | 88.8 | 81.2 | 65.4 | 10.3 | 92.4 | 91.6 | 91.5 | 83.8 | 33.6 | 98.2 | 102 | 94.3 | 76.1 | 0.2 | 10.9 | 9.6 | 6 | 9.2 | 0.895 | 1.07 | 1.61 | 1.58 |  |  |  |  |  |  |
| Cc1ccc(-c2c(-c3nn(C)c4ncnc(N5CC[C@H](N6CCCCC6)C5)c34)cnn2C)cc1 |  |  |  |  |  |  |  |  |  |  | 106 | 102 | 106 | 96.1 | 100 | 104 | 99.5 | 99 | 98.9 | 100 |  |  | 0 | 0 |  |  | > 10 | > 10 |  |  |  |  |  |  |
| Cn1cccc1/C=C1\C(=O)NC(=O)c2ccccc21 | 83.2 | 103 | 72.1 | 83 | 21.2 | 104 | 108 | 104 | 106 | 71.4 | 106 | 103 | 108 | 109 | 55.2 | 110 | 105 | 106 | 101 | 29.8 | 6.5 | 0.9 | 1.8 | 3.7 | 1.84 |  |  | 3.28 | 98.6 | 97.5 | 102 | 91 | 69 | 2.7 |
| Cn1ncc(Cl)c1-c1cc(C(=O)N[C@H](CN)Cc2cccc(F)c2)sc1Cl | 86.8 | 101 | 96.7 | 93.8 | 84.7 | 91.8 | 101 | 91.5 | 93.6 | 100 | 83.6 | 85.6 | 95.3 | 79.7 | 71 | 97.2 | 95.6 | 97.9 | 94.1 | 89.2 | 0 | 0 | 0 | 0 | > 10 | > 10 | > 10 | > 10 | 98 | 97.6 | 104 | 89.7 | 63.6 | 3.3 |
| NCC1OC(C23CC4CC(CC(C4)C2)C3)Cc2c1ccc(O)c2O (stereo not given) | 101 | 95.9 | 103 | 101 | 26.5 | 94 | 97.3 | 96 | 100 | 58.8 | 114 | 86.9 | 94.3 | 85.1 | 54.4 | 102 | 100 | 99 | 94.9 | 92.5 | 4 | 2 | 4 | 0 | 3.26 |  |  | > 10 | 106 | 98.1 | 100 | 94.2 | 65.3 | 2.6 |
| O=C(NOCCO)c1cc(CN2OCCCC2=O)c(F)c(F)c1Nc1ccc(I)cc1F | 100 | 70 | 34 | 19 | 21.6 | 89.3 | 85.2 | 61.2 | 50.7 | 50.4 | 88.1 | 76.9 | 67.9 |  | 68.2 | 97.2 | 92.9 | 90.1 | 87.4 | 43.7 | 26.2 | 15 | 13.5 | 4.9 |  |  |  |  | 96 | 92.1 | 61.7 | 43.4 | 32.7 | 15.9 |
| COc1cc2c(cc1O)CC[C@@H]1[C@@H]2CC[C@]2(C)[C@@H](O)CC[C@@H]12 [2-methoxyestradiol] | 96.1 | 99.9 | 91.7 | 115 | 33.8 | 99.6 | 97.8 | 98.9 | 94.8 | 36.2 | 99.1 | 105 | 101 | 77.4 | 58.1 | 96.4 | 95.1 | 102 | 77.8 | 46.5 | 2.8 | 4.3 | 4.9 | 5.9 | 3.99 | 2.5 |  | 1.15 | 103 | 107 | 106 | 98.9 | 60.2 | 2.1 |
| O=C(O)CCC(=O)C(=O)O [2-oxoglutaric-acid] | 97.9 | 94.3 | 91.4 | 98.8 | 105 | 97.8 | 104 | 98.3 | 104 | 102 | 95.3 | 97.7 | 95 | 94.2 | 91.5 | 98.5 | 99.5 | 95.2 | 98.7 | 99.3 | 0 | 0 | 0 | 0 | > 10 | > 10 | > 10 | > 10 |  |  |  |  |  |  |
